≈ marks a conversion by molar mass, not a printed value.
What was measured:
Experiment in all cases: ≥ marks a high value that may be exact or a test limit, other limits are often not marked, values filed in µg/mL are converted to µM
[1] = test system: Salmonella enterica serovar Typhimurium
[2] = test system: Staphylococcus epidermidis
[3] = test system: Enterococcus faecalis ATCC 29212
Escherichia coli UB1005 = test system: Escherichia coli UB1005
Candida albicans = test system: Candida albicans
[4] = test system: Staphylococcus aureus ATCC 25923
[5] = test system: Pseudomonas aeruginosa H103
[6] = test system: Pseudomonas aeruginosa PAO1
[7] = test system: Escherichia coli ATCC 25922
Enterococcus faecium = test system: Enterococcus faecium
[8] = test system: Staphylococcus aureus KCTC 1621
Staphylococcus aureus = test system: Staphylococcus aureus
[9] = test system: Escherichia coli KCTC 1682
[10] = test system: Salmonella typhimurium KCTC 1926
[11] = test system: Bacillus subtilis KCTC 3068
Acinetobacter baumannii = test system: Acinetobacter baumannii
[12] = test system: Salmonella enterica subsp. enterica serovar Typhimurium C77-31
Pseudomonas aeruginosa = test system: Pseudomonas aeruginosa
[13] = test system: Staphylococcus epidermidis ATCC 12228
[14] = test system: Staphylococcus aureus ATCC 29213
Escherichia coli = test system: Escherichia coli
[15] = test system: Pseudomonas aeruginosa KCTC 1637
[16] = test system: Staphylococcus epidermidis KCTC 1917
[17] = test system: Staphylococcus aureus NCTC 10788
[18] = test system: Candida albicans NCYC 1467
[19] = test system: Escherichia coli NCTC 10418
[20] = test system: Salmonella enterica subsp. enterica serovar Pullorum C79-13

`CC[C@H](C)[C@H](NC(=O)[C@@H](NC(=O)[C@@H](NC(=O)[C@H](CCCN=C(N)N)NC(=O)[C@H](CCCN=C(N)N)NC(=O)[C@H](CCC(N)=O)NC(=O)[C@@H](N)CCCN=C(N)N)C(C)C)C(C)C)C(=O)N[C@@H](Cc1c[nH]c2ccccc12)C(=O)N[C@@H](Cc1c[nH]c2ccccc12)C(=O)O` [RQRRVVIWW] gave an MIC [1] of 5.3 µM (≈ 6.88 µg/mL), an MIC [2] of 1.3 µM (≈ 1.69 µg/mL) and an MIC [3] of 5.3 µM (≈ 6.88 µg/mL). The MIC (Escherichia coli UB1005) was 1.3 µM (≈ 1.69 µg/mL), the MIC (Candida albicans) was 21.4 µM (≈ 27.8 µg/mL) and the MIC [4] was 2.7 µM (≈ 3.51 µg/mL). The MIC [5] was 10.7 µM (≈ 13.9 µg/mL).

Work on `CC[C@H](C)[C@H](NC(=O)[C@H](CCCN=C(N)N)NC(=O)[C@H](Cc1c[nH]c2ccccc12)NC(=O)[C@H](CCC(N)=O)NC(=O)[C@@H](N)CCCCN)C(=O)N[C@@H](CCCN=C(N)N)C(=O)N[C@H](C(=O)N[C@@H](C)C(=O)N[C@H](C(=O)N[C@H](C(=O)N[C@@H](CCCN=C(N)N)C(=O)N[C@@H](C)C(=O)O)[C@@H](C)CC)C(C)C)C(C)C` [KQWRIRVAVIRA] yielded an MIC [1] of at least 42.8 µM, an MIC [6] of 85.6 µM (≈ 128 µg/mL) and an MIC [7] of 21.4 µM (≈ 32 µg/mL). It also gave an MIC [4] of 21.4 µM (≈ 32 µg/mL).

With `NC(=O)[C@H](CCCN=C(N)N)NC(=O)[C@H](CCCN=C(N)N)NC(=O)[C@H](Cc1c[nH]c2ccccc12)NC(=O)[C@@H]1CCCN1C(=O)[C@H](Cc1c[nH]c2ccccc12)NC(=O)[C@H](Cc1c[nH]c2ccccc12)NC(=O)[C@@H]1CCCN1C(=O)[C@H](Cc1c[nH]c2ccccc12)NC(=O)[C@H](CCCN=C(N)N)NC(=O)[C@@H](N)CCCN=C(N)N` [RRWPWWPWRR] the MIC (Enterococcus faecium) was 1.79 µM (≈ 2.83 µg/mL), the MIC [8] was 1.26 µM (≈ 2 µg/mL) and the MIC (Staphylococcus aureus) was 2.53 µM (≈ 4 µg/mL). It also gave an MIC [9] of 1.26 µM (≈ 2 µg/mL), an MIC [10] of 2.53 µM (≈ 4 µg/mL) and an MIC [11] of 1.26 µM (≈ 2 µg/mL).

`CC(C)[C@H](NC(=O)[C@H](CCCN=C(N)N)NC(=O)[C@H](Cc1c[nH]c2ccccc12)NC(=O)[C@H](CCCN=C(N)N)NC(=O)[C@@H](NC(=O)[C@H](CCCCN)NC(=O)[C@H](Cc1c[nH]c2ccccc12)NC(=O)[C@H](CCCN=C(N)N)NC(=O)[C@@H](NC(=O)[C@H](CCCN=C(N)N)NC(=O)[C@@H](N)Cc1c[nH]c2ccccc12)C(C)C)[C@@H](C)O)C(=O)N[C@@H](CCCCN)C(N)=O` [WRVRWKTRWRVK] showed an MIC (Acinetobacter baumannii) of 8 µM (≈ 14 µg/mL), an MIC (Staphylococcus aureus) of 4 µM (≈ 7.02 µg/mL) and an MIC (Escherichia coli UB1005) of 2 µM (≈ 3.51 µg/mL). It also gave an MIC [7] of 4 µM (≈ 7.02 µg/mL), an MIC [12] of 4 µM (≈ 7.02 µg/mL) and an MIC (Pseudomonas aeruginosa) of 32 µM (≈ 56.2 µg/mL). It also gave an MIC [13] of 4 µM (≈ 7.02 µg/mL), an MIC [14] of 2 µM (≈ 3.51 µg/mL) and an MIC [4] of 4 µM (≈ 7.02 µg/mL). For the same molecule, the MIC (Escherichia coli) was 4 µM (≈ 7.02 µg/mL).

With `CC[C@H](C)[C@H](NC(=O)[C@H](CCCCN)NC(=O)[C@H](CC(C)C)NC(=O)[C@H](CC(C)C)NC(=O)[C@@H](N)CCCCN)C(=O)N[C@H](C(=O)N[C@H](C(=O)N[C@H](C(=O)N[C@@H](CCCCN)C(=O)N[C@H](C(=O)N[C@@H](CC(C)C)C(=O)N[C@@H](CCCCN)C(N)=O)C(C)C)[C@@H](C)CC)C(C)C)C(C)C` [KLLKIVVIKVLK] the MIC [15] was 8.97 µM (≈ 12.5 µg/mL), the MIC [8] was 8.97 µM (≈ 12.5 µg/mL) and the MIC [9] was 8.97 µM (≈ 12.5 µg/mL). The MIC [10] was 4.48 µM (≈ 6.25 µg/mL), the MIC [16] was 8.97 µM (≈ 12.5 µg/mL) and the MIC [11] was 8.97 µM (≈ 12.5 µg/mL).

In the case of `CC[C@H](C)[C@H](NC(=O)[C@H](C)NC(=O)[C@H](CC(C)C)NC(=O)[C@@H]1CCCN1C(=O)[C@@H](NC(=O)[C@H](CCSC)NC(=O)CNC(=O)[C@H](CC(C)C)NC(=O)[C@@H](N)CC(C)C)[C@@H](C)CC)C(=O)N[C@@H](CO)C(=O)N[C@@H](C)C(=O)N[C@H](C(=O)N[C@@H](CO)C(=O)N[C@@H](CO)C(=O)N[C@@H](CC(C)C)C(=O)N[C@@H](CO)C(=O)N[C@@H](CCCCN)C(=O)N[C@@H](CC(C)C)C(N)=O)[C@@H](C)CC` [LLGMIPLAISAISSLSKL], the MIC [17] is reported as 17.5 µM (≈ 32 µg/mL) and the MIC [18] is reported as at least 35 µM.

With `CC[C@H](C)[C@H](NC(=O)[C@@H](NC(=O)[C@H](Cc1c[nH]c2ccccc12)NC(=O)[C@@H](NC(=O)[C@@H](N)CCCCN)[C@@H](C)CC)C(C)C)C(=O)N[C@@H](CCCN=C(N)N)C(=O)N[C@@H](Cc1c[nH]c2ccccc12)C(=O)N[C@@H](CCCN=C(N)N)C(N)=O` [KIWVIRWR] the MIC [1] was 26.8 µM (≈ 31 µg/mL), the MIC [2] was 3.46 µM (≈ 4 µg/mL) and the MIC [3] was 13.8 µM (≈ 16 µg/mL). It also gave an MIC (Escherichia coli UB1005) of 6.92 µM (≈ 7.99 µg/mL), an MIC (Candida albicans) of 13.8 µM (≈ 16 µg/mL) and an MIC [4] of 13.8 µM (≈ 16 µg/mL). For the same molecule, the MIC [5] was 13.8 µM (≈ 16 µg/mL).

With `CC[C@H](C)[C@H](NC(=O)[C@H](CCCN=C(N)N)NC(=O)[C@@H](NC(=O)[C@H](Cc1c[nH]c2ccccc12)NC(=O)[C@H](Cc1c[nH]c2ccccc12)NC(=O)[C@@H](N)CCCN=C(N)N)[C@@H](C)CC)C(=O)N[C@@H](CCCN=C(N)N)C(=O)N[C@@H](Cc1c[nH]c2ccccc12)C(=O)N[C@@H](Cc1cnc[nH]1)C(=O)O` [RWWIRIRWH] the MIC [1] was 2.7 µM (≈ 3.8 µg/mL), the MIC [2] was 1.3 µM (≈ 1.83 µg/mL) and the MIC [3] was 2.7 µM (≈ 3.8 µg/mL). For the same molecule, the MIC (Escherichia coli UB1005) was 1.3 µM (≈ 1.83 µg/mL), the MIC (Candida albicans) was 10.7 µM (≈ 15.1 µg/mL) and the MIC [4] was 1.3 µM (≈ 1.83 µg/mL). It also gave an MIC [5] of 10.7 µM (≈ 15.1 µg/mL).

In the case of `CC[C@H](C)[C@H](NC(=O)[C@H](CC(=O)O)NC(=O)[C@H](CCCCN)NC(=O)[C@H](Cc1c[nH]c2ccccc12)NC(=O)[C@H](CC(C)C)NC(=O)[C@H](C)N)C(=O)N[C@@H](CC(C)C)C(=O)N[C@@H](CCCCN)C(=O)N[C@@H](CC(N)=O)C(=O)N[C@@H](CC(C)C)C(=O)N[C@@H](CC(C)C)C(=O)N[C@@H](CCCCN)C(=O)N[C@@H](C)C(=O)N[C@@H](C)C(=O)N[C@@H](CC(C)C)C(=O)N[C@@H](CC(N)=O)C(=O)N[C@@H](CCC(=O)O)C(=O)N[C@H](C(=O)N[C@@H](CC(N)=O)C(=O)N[C@@H](CCC(N)=O)C(=O)N[C@H](C(=O)N[C@H](C(=O)N[C@@H](CCC(N)=O)C(N)=O)C(C)C)[C@@H](C)CC)[C@@H](C)CC` [ALWKDILKNLLKAALNEINQIVQ], the MIC [17] is reported as 8 µM (≈ 21.2 µg/mL), the MIC [18] is reported as 16 µM (≈ 42.4 µg/mL) and the MIC [19] is reported as 16 µM (≈ 42.4 µg/mL).

Work on `CC[C@H](C)[C@H](NC(=O)[C@H](CCCN=C(N)N)NC(=O)[C@H](CCCN=C(N)N)NC(=O)[C@H](CC(C)C)NC(=O)[C@@H](N)CCCN=C(N)N)C(=O)N[C@H](C(=O)N[C@H](C(=O)N[C@H](C(=O)N[C@@H](CCCN=C(N)N)C(=O)N[C@H](C(=O)N[C@@H](Cc1ccccc1)C(=O)N[C@@H](CCCN=C(N)N)C(=O)O)C(C)C)[C@@H](C)CC)C(C)C)C(C)C` [RLRRIVVIRVFR] yielded an MIC [1] of 4 µM (≈ 6.33 µg/mL), an MIC [2] of 0.5 µM (≈ 0.792 µg/mL) and an MIC [3] of 2 µM (≈ 3.17 µg/mL). It also gave an MIC (Escherichia coli UB1005) of 4 µM (≈ 6.33 µg/mL), an MIC (Candida albicans) of 16 µM (≈ 25.3 µg/mL) and an MIC [4] of 1 µM (≈ 1.58 µg/mL). It also gave an MIC [5] of 8 µM (≈ 12.7 µg/mL).

`C[C@@H](O)[C@H](NC(=O)[C@H](Cc1c[nH]c2ccccc12)NC(=O)[C@H](Cc1c[nH]c2ccccc12)NC(=O)[C@@H](NC(=O)[C@H](CCCCN)NC(=O)[C@H](Cc1c[nH]c2ccccc12)NC(=O)[C@H](Cc1c[nH]c2ccccc12)NC(=O)[C@@H](NC(=O)[C@H](CCCCN)NC(=O)[C@@H](N)CCCCN)[C@@H](C)O)[C@@H](C)O)C(=O)N[C@@H](CCCCN)C(=O)N[C@@H](Cc1c[nH]c2ccccc12)C(=O)O` [KKTWWKTWWTKW] showed an MIC [15] of 8 µM (≈ 14.1 µg/mL), an MIC [8] of 4 µM (≈ 7.06 µg/mL) and an MIC [9] of 4 µM (≈ 7.06 µg/mL). The MIC [10] was 4 µM (≈ 7.06 µg/mL), the MIC [16] was 4 µM (≈ 7.06 µg/mL) and the MIC [11] was 2 µM (≈ 3.53 µg/mL).

Molecule `NCCCC[C@H](NC(=O)CNC(=O)[C@H](CC(N)=O)NC(=O)[C@H](CCC(=O)O)NC(=O)[C@H](Cc1c[nH]c2ccccc12)NC(=O)[C@H](CCCCN)NC(=O)[C@H](Cc1c[nH]c2ccccc12)NC(=O)[C@H](CCCCN)NC(=O)[C@@H](N)Cc1c[nH]c2ccccc12)C(=O)N[C@@H](Cc1c[nH]c2ccccc12)C(=O)N[C@@H](CCCCN)C(=O)N[C@@H](Cc1c[nH]c2ccccc12)C(=O)N[C@@H](CCC(N)=O)C(=O)N[C@@H](Cc1c[nH]c2ccccc12)C(=O)O` [WKWKWENGKWKWQW] has an MIC [3] of over 128 µM, an MIC [7] of 32 µM (≈ 66.4 µg/mL) and an MIC [12] of at least 64 µM. For the same molecule, the MIC [13] was over 128 µM, the MIC [14] was over 128 µM and the MIC [20] was 16 µM (≈ 33.2 µg/mL).
